In patent US7625897B2, “Non-nucleoside reverse transcriptase inhibitors” (Roche Palo Alto LLC, priority 2005, dated 2009):
Like-named read-outs stand apart in the source and are kept apart here.

Molecular target: HIV-1 RT (Human immunodeficiency virus type 1 group M subtype B, UniProt P03366)
Assay: HIV Reverse Transcriptase Assay: Inhibitor IC50 determination
Assay type: biochemical
Details: purified recombinant enzyme, poly(rA)/oligo(dT)16 template-primer, read-out: HIV-RT IC50 RT
Protocol: HIV Reverse Transcriptase Assay: Inhibitor IC50 determination
HIV-1 RT assay was carried out in 96-well Millipore MultiScreen MADVNOB50 plates using purified recombinant enzyme and a poly(rA)/oligo(dT)16 template-primer in a total volume of 50 μL. The assay constituents were 50 mM Tris/HCl, 50 mM NaCl, 1 mM EDTA, 6 mM MgCl2, 5 μM dTTP, 0.15 μCi [^3H] dTTP, 5 μg/ml poly (rA) pre annealed to 2.5 μg/ml oligo (dT)16 and a range of inhibitor concentrations in a final concentration of 10% DMSO. Reactions were initiated by adding 4 nM HIV-1 RT and after incubation at 37° C. for 30 min, they were stopped by the addition of 50 μl ice cold 20% TCA and allowed to precipitate at 4° C. for 30 min. The precipitates were collected by applying vacuum to the plate and sequentially washing with 3×200 μl of 10% TCA and 2×200 μl 70% ethanol. Finally, the plates were dried and radioactivity counted in a Packard TopCounter after the addition of 25 μl scintillation fluid per well. IC50's were calculated by plotting % inhibition versus log10 inhibitor concentrations.

| Structure (SMILES) | IC50 (TABLE I) | IC50 (TABLE II) |
| --- | --- | --- |
| Cc1ccc(CC2=NNC(=O)[C@@H](C)N2)c(F)c1Oc1cc(C#N)cc(C(F)F)c1 [Compound I-19, 3-Difluoromethyl-5-[2-fluoro-6-methyl-3-((R)-5-methyl-6-oxo-1,4,5,6-tetrahydro-[1,2,4]triazin-3-ylmethyl)-phenoxy]-benzonitrile] | 18 nM | – |
| Cc1nc(Cc2ccc(Cl)c(Oc3cc(Br)cc(C#N)c3)c2F)n[nH]c1=O [II-6, 3-Bromo-5-[6-chloro-2-fluoro-3-(5-methyl-6-oxo-1,6-dihydro-[1,2,4]triazin-3-ylmethyl)-phenoxy]-benzonitrile] | – | 32.5 nM |
| CCC1OC(Cc2ccc(Cl)c(Oc3cccc(Br)c3)c2)=NNC1=O (stereo not shown) [Compound I-12, 2-[3-(3-Bromo-phenoxy)-4-chloro-benzyl]-6-ethyl-4H-[1,3,4]oxadiazin-5-one] | 212 nM | – |
| CC1(C)NC(Cc2ccc(Cl)c(Oc3cc(Cl)cc(C#N)c3)c2F)=NNC1=O [Compound I-27] | 7070 nM | – |
| N#Cc1cc(Cl)cc(Oc2c(Cl)ccc(CC3=NNC(=O)C(C(F)(F)F)N3)c2F)c1 (stereo not shown) [Compound I-29] | 26.9 nM | – |
| CC[C@H]1NC(Cc2ccc(Cl)c(Oc3cc(Cl)cc(C#N)c3)c2F)=NNC1=O [Compound I-17, 3-Chloro-5-[6-chloro-3-((R)-5-ethyl-6-oxo-1,4,5,6-tetrahydro-[1,2,4]triazin-3-ylmethyl)-2-fluoro-phenoxy]-benzonitrile] | 13 nM | – |
| CC1OC(Cc2ccc(Cl)c(Oc3cc(Cl)cc(C#N)c3)c2F)=NNC1=O (stereo not shown) [Compound I-8, 3-Chloro-5-[6-chloro-2-fluoro-3-(6-methyl-5-oxo-5,6-dihydro-4H-[1,3,4]oxadiazin-2-ylmethyl)-phenoxy]-benzonitrile] | 13.6 nM | – |
| O=C1CCC(Cc2ccc(Cl)c(Oc3ccccc3)c2)=NN1 [Compound I-24, 6-(4-Chloro-3-phenoxy-benzyl)-4,5-dihydro-2H-pyridazin-3-one] | 2630 nM | – |
| C[C@H]1CC(Cc2ccc(Cl)c(Oc3cccc(C#N)c3)c2)=NNC1=O [Compound I-21, 3-[2-chloro-5-((S)-5-methyl-6-oxo-1,4,5,6-tetrahydro-pyridazin-3-ylmethyl)-phenoxy]-benzonitrile] | 46.9 nM | – |
| C[C@@H]1NC(Cc2ccc(Cl)c(Oc3cccc(Br)c3)c2)=NNC1=O [Compound I-1, (S)-3-[3-(3-Bromo-phenoxy)-4-chloro-benzyl]-5-methyl-4,5-dihydro-1H-[1,2,4]triazin-6-one] | 4520 nM | – |
| C[C@H]1CC(Cc2ccc(Cl)c(Oc3cccc(Br)c3)c2)=NNC1=O [Compound I-20, (S)-6-[3-(3-Bromo-phenoxy)4-chloro-benzyl]-4-methyl-4,5-dihydro-2H-pyridazin-3-one] | 65.4 nM | – |
| C[C@@H]1NC(Cc2ccc(Cl)c(Oc3cc(Cl)cc(C#N)c3)c2F)=NNC1=O [Compound I-18, 3-Chloro-5-[6-chloro-2-fluoro-3-(5-methyl-6-oxo-1,4,5,6-tetrahydro-[1,2,4]triazin-3-ylmethyl)-phenoxy]-benzonitrile] | 11.9 nM | – |
| C[C@H]1NC(Cc2ccc(Cl)c(Oc3cc(C#N)cc(C(F)F)c3)c2F)=NNC1=O [Compound I-16, 3-[6-Chloro-2-fluoro-3-((R)-5-methyl-6-oxo-1,4,5,6-tetrahydro-[1,2,4]triazin-3-ylmethyl)-phenoxy]-5-difluoromethyl-benzonitrile] | 15.3 nM | – |
| CCC1OC(Cc2ccc(Cl)c(Oc3cccc(C#N)c3)c2)=NNC1=O (stereo not shown) [Compound I-14, 3-[2-Chloro-5-(6-ethyl-5-oxo-5,6-dihydro4H-[1,3,4]oxadiazin-2-ylmethyl)-phenoxy]-benzonitrile] | 128 nM | – |
| CC1(C)OC(Cc2ccc(Cl)c(Oc3cccc(Br)c3)c2)=NNC1=O [Compound I-11, 2-[3-(3-Bromo-phenoxy)4-chloro-benzyl]-6,6-dimethyl-4H-[1,3,4]oxadiazin-5-one] | > 10000 nM | – |
| CC1OC(Cc2ccc(Cl)c(Oc3cc(Cl)cc(Br)c3)c2F)=NNC1=O (stereo not shown) [Compound I-6, 2-[3-(3-Bromo-5-chloro-phenoxy)-4-chloro-2-fluoro-benzyl]-6-methyl-4H-[1,3,4]oxadiazin-5-one] | 24.7 nM | – |
